The text below walks through data of US4971965A, “Antibiotics TAN-1057” (Takeda Chemical Industries, Ltd., priority 1988, dated 1990).

Values after ≈ are worked out from the molar mass of the structure shown. Some results are limits rather than exact numbers.

In data set [1] the test system is Staphylococcus epidermidis IFO 3762. Type of data set: cell-based. To be noted: IFO3762, agar dilution, DY medium, pH unadjusted, approx. 10^6 CFU/ml, read-out: Minimum Inhibitory Conc. (MIC). The protocol: (§1) (Note 1) Measurement was conducted by employing a medium consisting of DY
(§2) medium [Bacto Antibiotic Medium 3 (Difco Laboratories, USA)(17.5 g), Bact
(§3) yeast extract(Difco Laboratories, USA)(5.0 g) and distilled water(pH
(§4) unadjusted)(1000 ml)], using approximately 10^6 colony forming unit/m
(§5) of inoculum, by means of the agar dilution method.
For orientation: In agar dilution the substance is mixed into plates at graded concentrations.

The test system of another data set is Bacillus cereus FDA 5. Type of data set: cell-based. The conditions noted are these: FDA5, agar dilution, DY medium, pH unadjusted, approx. 10^6 CFU/ml, read-out: Minimum Inhibitory Conc. (MIC). The protocol:
as §1, §2, §3, §4, §5

In data set [2] the test system is Pseudomonas aeruginosa IFO 3080. Type of data set: cell-based. To be noted: IFO3080, agar dilution, DY medium, pH unadjusted, approx. 10^6 CFU/ml, read-out: Minimum Inhibitory Conc. (MIC). The protocol: as §1, §2, §3, §4, §5
Data set [3] deals with Streptococcus faecalis IFO 3989. It counts as cell-based. To be noted: Enterococcus faecalis, IFO3989; agar dilution; DY medium, pH unadjusted; approx. 10^6 CFU/ml; read-out: Minimum Inhibitory Conc. (MIC). The protocol: as §1, §2, §3, §4, §5
The subject of data set [4] is Bacillus subtilis NIHJ PCI 219. It counts as cell-based. To be noted: agar dilution, DY medium, pH unadjusted, approx. 10^6 CFU/ml, read-out: Minimum Inhibitory Conc. (MIC). The protocol: as §1, §2, §3, §4, §5
Another data set deals with Aeromonas caviae NCW. Type of data set: cell-based. The conditions noted are these: agar dilution, DY medium, pH unadjusted, approx. 10^6 CFU/ml, read-out: Minimum Inhibitory Conc. (MIC). On the procedure:
as §1, §2, §3, §4, §5

The test system of data set [5] is Staphylococcus aureus FDA 209P. Type of data set: cell-based. To be noted: FDA209P, agar dilution, DY medium, pH unadjusted, approx. 10^6 CFU/ml, read-out: Minimum Inhibitory Conc. (MIC). On the procedure:
as §1, §2, §3, §4, §5

Data set [6] relates to Escherichia coli NIHJ JC 2. Type of data set: cell-based. The conditions noted are these: NIHJJC2, agar dilution, DY medium, pH unadjusted, approx. 10^6 CFU/ml, read-out: Minimum Inhibitory Conc. (MIC). On the procedure:
as §1, §2, §3, §4, §5

The test system of data set [7] is Klebsiella pnemoniae IFO 3317. It counts as cell-based. The conditions noted are these: IFO3317, agar dilution, DY medium, pH unadjusted, approx. 10^6 CFU/ml, read-out: Minimum Inhibitory Conc. (MIC). On the procedure:
as §1, §2, §3, §4, §5

The test system of data set [8] is Bacillus megaterium IFO 12108. It counts as cell-based. The conditions noted are these: Priestia megaterium, IFO12108; agar dilution; DY medium, pH unadjusted; approx. 10^6 CFU/ml; read-out: Minimum Inhibitory Conc. (MIC). The protocol: as §1, §2, §3, §4, §5
In data set [9] the test system is Salmonella typhimurium IFO 12529. Type of data set: cell-based. The conditions noted are these: Salmonella enterica; agar dilution; DY medium, pH unadjusted; approx. 10^6 CFU/ml; read-out: Minimum Inhibitory Conc. (MIC). On the procedure: as §1, §2, §3, §4, §5
For another data set, the system named is Escherichia coli LD-2. Type of data set: cell-based. The conditions noted are these: LD2, agar dilution, DY medium, pH unadjusted, approx. 10^6 CFU/ml, read-out: Minimum Inhibitory Conc. (MIC). On the procedure: as §1, §2, §3, §4, §5
In data set [10] the test system is Micrococcus luteus IFO 12708. Type of data set: cell-based. The conditions noted are these: IFO12708, agar dilution, DY medium, pH unadjusted, approx. 10^6 CFU/ml, read-out: Minimum Inhibitory Conc. (MIC). The protocol:
as §1, §2, §3, §4, §5

Data set [11] relates to Acinetobacter calcoaceticus IFO 12552. It counts as cell-based. The conditions noted are these: IFO12552, agar dilution, DY medium, pH unadjusted, approx. 10^6 CFU/ml, read-out: Minimum Inhibitory Conc. (MIC). On the procedure:
as §1, §2, §3, §4, §5

The subject of data set [12] is Proteus vulgaris IFO 3988. It counts as cell-based. To be noted: IFO3988, agar dilution, DY medium, pH unadjusted, approx. 10^6 CFU/ml, read-out: Minimum Inhibitory Conc. (MIC). On the procedure: as §1, §2, §3, §4, §5
Data set [13] in a line: Conversion in aqueous solution. Type of data set: physicochemical. To be noted: especially aqueous alkaline solution, by HPLC. An excerpt: For example, in case that the mixture of TAN-1057A and B is isolated as crystals of the sulfate, the ratio of TAN-1057A and B is about 6 to 8:4 to 2.
The term "Antibiotics TAN-1057" in the present specification includes also a mixture which contains TAN-1057A, B, C and D in an optional combination and an optional ratio thereof.

The term MIC denotes the lowest concentration found to suppress growth. For `CN1C(=O)C[C@H](CCCNC(=N)N)NC(=O)[C@@H]1CNC(=N)NC(N)=O` [TAN-1057D], the MIC is 0.78 µg/mL (≈ 2.19 µM) in data set [1]; 25 µg/mL (≈ 70.3 µM) in the data set with Bacillus cereus FDA 5; over 100 µg/mL in [2]; 12.5 µg/mL (≈ 35.2 µM) in data set [3]; 12.5 µg/mL (≈ 35.2 µM) in data set [4]; 6.25 µg/mL (≈ 17.6 µM) in the data set on Aeromonas caviae NCW. Further, the minimal inhibitory concentration (MIC) in data set [5] is 6.25 µg/mL (≈ 17.6 µM); in [6] it was over 100 µg/mL; in [7] it was over 100 µg/mL; in [8], 12.5 µg/mL (≈ 35.2 µM); in data set [9], over 100 µg/mL; in the data set with Escherichia coli LD-2, 12.5 µg/mL (≈ 35.2 µM). The MIC in data set [10] is 3.13 µg/mL (≈ 8.81 µM); in data set [11], 25 µg/mL (≈ 70.3 µM); in [12], over 100 µg/mL. Moreover, the “conversion of TAN-1057C and D” value in data set [13] was “converted into TAN-1057B and TAN-1057A, respectively”.
